Converted amounts (≈) assume the structure as drawn. Like-named read-outs stand apart in the source and are kept apart here.
What was measured:
[1] = test system: HIV-1 ROJO (low passage clinical strain); test: PBMC assay, virus production by reverse transcriptase activity; type: cell-based
[2] = test system: fresh human peripheral blood mononuclear cells
[3] = test system: Burkholderia mallei; test: microbe, parasite or virus in culture; type: cell-based
[4] = test system: Bacillus anthracis; test: microbe, parasite or virus in culture; type: cell-based; conditions: Bacillus anthracis; read-out: MIC90
[5] = test system: Francisella tularensis; test: microbe, parasite or virus in culture; type: cell-based; conditions: Francisella tularensis
[6] = test system: Flu A H1N1 New Caledonia/20/99; test: Anti-influenza testing, visual and NR assays; type: cell-based, influenza A H1N1; conditions: for activity by visual and NR assays: Flu A H1N1
[7] = test system: Flu A H3N2 California/7/04; test: Anti-influenza testing, visual and NR assays; type: cell-based, influenza A H3N2; conditions: for activity by visual and NR assays: Flu A H3N2; for EC50: H3N2, MDCK
[8] = test system: MDCK; test: Anti-influenza testing, IC50 in MDCK cell line (cell-inhibitory concentration used for SI); type: cell-based; conditions: Canis lupus familiaris
[9] = test system: Plasmodium falciparum; test: Anti-malaria testing; type: cell-based
[10] = test system: H37Rv Colorado strain; test: TB MIC Testing (Table 9); type: cell-based; conditions: Mycobacterium tuberculosis, read-out: MIC Value, Standard Test Strain H27Rv
[11] = test system: H37Rv Colorado strain; test: MBC Determination with H37Rv Colorado strain (Table 9); type: cell-based; conditions: Mycobacterium tuberculosis; Performed with H37Rv
[12] = test system: TB; test: DMID TB MIC Results (Table 10); type: cell-based; conditions: Mycobacterium tuberculosis; solvent DMSO
[13] = test system: B. anthracis; test: microbe, parasite or virus in culture; type: cell-based; conditions: Bacillus anthracis, read-out: MIC B. anthracis
[14] = test system: B. mallei; test: microbe, parasite or virus in culture; type: cell-based; conditions: Burkholderia mallei, read-out: MIC B. mallei
[15] = test system: B. pseudomallei; test: microbe, parasite or virus in culture; type: cell-based; conditions: Burkholderia pseudomallei, read-out: MIC B. pseudomallei
[16] = test system: F. tularensis; test: microbe, parasite or virus in culture; type: cell-based; conditions: Francisella tularensis, read-out: MIC F. tularensis (Original Test)
[17] = test system: Y. pestis; test: microbe, parasite or virus in culture; type: cell-based; conditions: Yersinia pestis, read-out: MIC Y. pestis
[18] = test system: E. coli; test: microbe, parasite or virus in culture; type: cell-based; conditions: Escherichia coli, read-out: MIC E. coli
[19] = test system: P. aeruginosa; test: microbe, parasite or virus in culture; type: cell-based; conditions: Pseudomonas aeruginosa, read-out: MIC P. aeruginosa
[20] = test system: Vero Cells; test: Cytotoxicity Assay, CellTiter-Glo Luminescent Cell Viability Assay
[21] = test system: Burkholderia pseudomallei; test: microbe, parasite or virus in culture; type: cell-based
[22] = test system: HIV-1; test: CEM-SS microtiter antiviral XTT cytoprotection assay; type: cell-based
[23] = test system: CEM-SS cells
[24] = average of Test 1 and Test 2, read-out: Average IC50

Cc1cn([C@H]2C[C@H](N=[N+]=[N-])[C@@H](CO)O2)c(=O)[nH]c1=O [AZT, reference compound]
RT ACTIVITY % VC ([1]; 0.0013 μM): 104.6%
RT ACTIVITY % VC ([1]; 0.013 μM): 77.3%
RT ACTIVITY % VC ([1]; 0.04 μM): 81.7%
RT ACTIVITY % VC ([1]; 0.13 μM): 32.3%
RT ACTIVITY % VC ([1]; 0.4 μM): 3.8%
RT ACTIVITY % VC ([1]; 1.3 μM): 8.8%
RT ACTIVITY % VC ([1]; 4 μM): 0.7%
IC50 ([1]; ROJO in PBMC, RT activity): 0.1 µM
CC50 [2]: > 4 µM
TOXICITY VALUES (XTT) % CC ([2]; 0.0013 μM): 90.1%
TOXICITY VALUES (XTT) % CC ([2]; 0.013 μM): 99.3%
TOXICITY VALUES (XTT) % CC ([2]; 0.04 μM): 92.1%
TOXICITY VALUES (XTT) % CC ([2]; 0.13 μM): 89.0%
TOXICITY VALUES (XTT) % CC ([2]; 0.4 μM): 98.8%
TOXICITY VALUES (XTT) % CC ([2]; 1.3 μM): 84.8%
TOXICITY VALUES (XTT) % CC ([2]; 4 μM): 86.2%

CC[C@H]1OC(=O)[C@H](C)[C@@H](O[C@H]2C[C@@](C)(OC)[C@@H](O)[C@H](C)O2)[C@H](C)[C@@H](O[C@@H]2O[C@H](C)C[C@H](N(C)C)[C@H]2O)[C@](C)(O)C[C@@H](C)CN(C)[C@H](C)[C@@H](O)[C@]1(C)O [Azithromycin, azithromycin, reference compound]
MIC Range [3]: 0.0625 to 1 µg/mL
MIC50 ([3]; Burkholderia mallei): 0.5 µg/mL (≈ 0.668 µM)
MIC90 ([3]; Burkholderia mallei, read-out: MIC90): 1 µg/mL (≈ 1.34 µM)

N=C(NC(=N)N1CCSCC1)NC1C2CC3CCC1(NC(=N)NC(=N)N1CCSCC1)CC3C2 (stereo not shown) [BVS-20A (XII)]
MIC90 [4]: ≤ 4 µg/mL
MIC90 [5]: < 4 µg/mL

O=C1C2C=CC=C([N+](=O)[O-])C2(C(=O)O)C(c2ccccc2)N1c1ccc(O)cc1 (stereo not shown) [BVS-45A (I)]
activity by visual and NR assays [6]: highly active
activity by visual and NR assays [7]: highly active

O=C1C2C=CC=C([N+](=O)[O-])C2(C(=O)O)C(c2ccccc2)N1c1ccc(O)cc1 (stereo not shown) [BVS-45]
EC90 ([6]; Influenza A virus, Virus Yield assay, Flu A (H1N1) New Caledonia/20/99, MDCK, vehicle DMSO, trial 2): > 100 µg/mL
EC50 ([6]; Influenza A virus, Visual-CONF assay, Flu A (H1N1) New Caledonia/20/99, MDCK, vehicle DMSO, trial 2, read-out: EC50): 0.18 µg/mL (≈ 0.459 µM)
EC50 ([7]; Influenza A virus, Neutral Red assay, Flu A (H3N2) California/7/04, MDCK, vehicle DMSO, trial 1): 0.22 µg/mL (≈ 0.561 µM)
EC50 ([7]; Influenza A virus, Visual assay, Flu A (H3N2) California/7/04, MDCK, vehicle DMSO, trial 1): 0.056 µg/mL (≈ 0.143 µM)
EC50 ([7]; Influenza A virus, Visual-CONF assay, Flu A (H3N2) California/7/04, MDCK, vehicle DMSO, trial 2): 0.056 µg/mL (≈ 0.143 µM)
EC90 ([7]; Influenza A virus, Virus Yield assay, Flu A (H3N2) California/7/04, MDCK, vehicle DMSO, trial 2): 0.15 µg/mL (≈ 0.382 µM)
IC50 ([8]; Neutral Red assay, test with Flu A (H3N2) California/7/04, trial 1, read-out: IC50): 75 µg/mL (≈ 191 µM)
IC50 ([8]; Visual assay, test with Flu A (H1N1) New Caledonia/20/99, trial 1): > 100 µg/mL
IC50 ([8]; Visual assay, test with Flu A (H3N2) California/7/04, trial 1, read-out: IC50): > 100 µg/mL
IC50 ([8]; Visual-CONF assay, test with Flu A (H1N1) New Caledonia/20/99, trial 2, read-out: IC50): > 100 µg/mL
IC50 ([8]; Visual-CONF assay, test with Flu A (H3N2) California/7/04, trial 2, read-out: IC50): > 100 µg/mL

N#CNC(=N)NC1C2CC3CCC1(NC(=N)NC#N)CC3C2 (stereo not shown) [BVS-47A (XX)]
IC50 [9, 24]: > 10 µM
IC50 ([9]; read-out: IC50 Test 1): > 10 µM
IC50 ([9]; read-out: IC50 Test 2): > 10 µM
activity by visual and NR assays [6]: highly active
activity by visual and NR assays [7]: highly active

N#CNC(=N)NC1C2CC3CCC1(NC(=N)NC#N)CC3C2 (stereo not shown) [BVS-47]
EC50 ([6]; Influenza A virus, H1N1, MDCK): 0.25 µg/mL (≈ 0.832 µM)
IC50 ([8]; Neutral Red assay, test with Flu A (H1N1) New Caledonia/20/99, trial 1): 70 µg/mL (≈ 233 µM)

C[C@@H]1COc2c(N3CCN(C(=N)NC(=N)NCCCCCCNC(=N)NC(=N)N4CCN(c5c(F)cc6c(=O)c(C(=O)O)cn7c6c5OC[C@@H]7C)CC4)CC3)c(F)cc3c(=O)c(C(=O)O)cn1c23 [BVS-85A (XVII)]
MIC [10]: 1.25 µg/mL (≈ 1.32 µM)
MBC [11]: 1.25 µg/mL (≈ 1.32 µM)
IC50 [12]: 0.53 µg/mL (≈ 0.561 µM)
IC90 [12]: 0.57 µg/mL (≈ 0.603 µM)
MIC [12]: 0.625 µg/mL (≈ 0.661 µM)
MIC [13]: < 0.06 µg/mL
MIC [14]: 0.5 µg/mL (≈ 0.529 µM)
MIC [15]: 8 µg/mL (≈ 8.47 µM)
MIC [16]: < 0.06 µg/mL
MIC [17]: 0.06 to 0.12 µg/mL (≈ 0.0635 to 0.127 µM)
MIC [18]: < 0.06 µg/mL
MIC [19]: 0.5 µg/mL (≈ 0.529 µM)
IC50 [9, 24]: 7.26 µM
IC50 ([9]; read-out: IC50 Test 1): 5.45 µM
IC50 ([9]; read-out: IC50 Test 2): 9.06 µM
% Viability ([20]; 0.01 μg/ml): 109%
% Viability ([20]; 0.02 μg/ml): 109%
% Viability ([20]; 5 μg/ml): 106%
% Viability ([20]; 10 μg/ml): 101%
% Viability ([20]; 20 μg/ml, vs […] DMSO controls): 107%

O=C(O)C1=C(c2ccc(F)c(N3CCNCC3)c2)N(C23CC4CCC(C2)C(C4)C3)C(=O)CC1 (stereo not shown) [BVS-97E (XIV)]
MIC [13]: 4 µg/mL (≈ 8.82 µM)
MIC [14]: > 64 µg/mL
MIC [15]: > 64 µg/mL
MIC [16]: 0.5 to 4 µg/mL (≈ 1.1 to 8.82 µM)
MIC [17]: > 64 µg/mL
MIC [18]: 16 to 32 µg/mL (≈ 35.3 to 70.6 µM)
MIC [19]: > 64 µg/mL

CC(C)(O/N=C(\C(=O)N[C@@H]1C(=O)N2C(C(=O)[O-])=C(C[n+]3ccccc3)CS[C@H]12)c1csc(N)n1)C(=O)O [Ceftazidime, ceftazidime, reference compound]
MIC Range [21]: 0.5 to 32 µg/mL
MIC50 ([21]; Burkholderia pseudomallei): 2 µg/mL (≈ 3.66 µM)
MIC90 ([21]; Burkholderia pseudomallei): 4 µg/mL (≈ 7.32 µM)

O=C(O)c1cn(C2CC2)c2cc(N3CCNCC3)c(F)cc2c1=O [Ciprofloxacin, ciprofloxacin, reference compound]
MIC [13]: < 0.03 µg/mL
MIC [14]: 1 µg/mL (≈ 3.02 µM)
MIC [15]: 0.5 to 1 µg/mL (≈ 1.51 to 3.02 µM)
MIC [18]: 0.015 to 0.06 µg/mL (≈ 0.0453 to 0.181 µM)
MIC [19]: 0.25 µg/mL (≈ 0.754 µM)

Nc1ccn([C@H]2CC[C@@H](CO)O2)c(=O)n1 [DDC, di-deoxycytosine, reference compound]
% RED. IN VIRAL CPE ([22]; 0.00003 μM): 1%
% RED. IN VIRAL CPE ([22]; 0.0001 μM): 5%
% RED. IN VIRAL CPE ([22]; 0.00032 μM): 6%
% RED. IN VIRAL CPE ([22]; 0.001 μM): 4%
% RED. IN VIRAL CPE ([22]; 0.0032 μM): 8%
% RED. IN VIRAL CPE ([22]; 0.01 μM): 9%
% RED. IN VIRAL CPE ([22]; 0.032 μM): 75%
% RED. IN VIRAL CPE ([22]; 0.1 μM): 81%
% RED. IN VIRAL CPE ([22]; 0.32 μM): 92%
% RED. IN VIRAL CPE ([22]; 1 μM): 86%
% RED. IN VIRAL CPE ([22]; 3.2 μM): 100%
% RED. IN VIRAL CPE ([22]; 10 μM): 100%
% CELL VIABILITY ([23]; 0.00003 μM): 100%
% CELL VIABILITY ([23]; 0.0001 μM): 93%
% CELL VIABILITY ([23]; 0.00032 μM): 99%
% CELL VIABILITY ([23]; 0.001 μM): 100%
% CELL VIABILITY ([23]; 0.0032 μM): 100%
% CELL VIABILITY ([23]; 0.01 μM): 100%
% CELL VIABILITY ([23]; 0.032 μM): 100%
% CELL VIABILITY ([23]; 0.1 μM): 96%
% CELL VIABILITY ([23]; 0.32 μM): 97%
% CELL VIABILITY ([23]; 1 μM): 100%
% CELL VIABILITY ([23]; 3.2 μM): 100%
% CELL VIABILITY ([23]; 10 μM): 100%

NNC(=O)c1ccncc1 [Isoniazid, isoniazid, reference compound]
MIC [10]: 0.031 µg/mL (≈ 0.226 µM)
MBC [11]: 0.031 µg/mL (≈ 0.226 µM)
MIC [12]: 0.06 µg/mL (≈ 0.438 µM)
